From patent US8143282B2, “Heterocyclic compounds” (S*BIO Pte Ltd., priority 2005, dated 2012)

Legend:
HDAC1 enzyme = target: T1, HDAC1 enzyme (Homo sapiens, UniProt Q13547); experiment: In vitro HDAC assay for determination of IC50 values (BIOMOL fluorescent-based HDAC activity assay); format: biochemical
T1 construct: Amplification of human HDAC1 coding region from this cDNA library was cloned separately into the baculovirus expression pDEST20 vector; made in house; host or cells: SF9 insect cells, pDEST20-HDAC1 baculovirus
T1 sequence (Q13547 whole entry): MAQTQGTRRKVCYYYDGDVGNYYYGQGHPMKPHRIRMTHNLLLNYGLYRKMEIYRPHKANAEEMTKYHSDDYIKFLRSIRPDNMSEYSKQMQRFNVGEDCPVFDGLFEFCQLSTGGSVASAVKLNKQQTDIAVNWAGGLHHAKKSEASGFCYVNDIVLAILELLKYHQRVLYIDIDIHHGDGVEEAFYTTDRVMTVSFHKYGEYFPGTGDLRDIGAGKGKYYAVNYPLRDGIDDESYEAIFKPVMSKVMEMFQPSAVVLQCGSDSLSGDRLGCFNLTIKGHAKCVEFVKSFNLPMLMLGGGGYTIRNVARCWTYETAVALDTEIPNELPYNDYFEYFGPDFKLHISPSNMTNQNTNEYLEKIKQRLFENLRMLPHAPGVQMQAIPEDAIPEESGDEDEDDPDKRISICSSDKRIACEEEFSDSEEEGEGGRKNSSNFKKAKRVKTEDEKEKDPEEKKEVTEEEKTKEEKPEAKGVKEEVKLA
Outline: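 Recombinant GST-HDAC1, cloned from SW620 cDNA and expressed in Sf9 cells, tested in a fluorogenic Fluor de Lys deacetylase assay. Developer was added for 10 min and fluorescence read at 360/460 nm. IC50 came from concentration series.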

HCT116 = experiment: Cell-based proliferation assay for GI50 (CyQUANT), HCT116; conditions: Homo sapiens, HCT-116; HCT116, 96 h treatment; read-out: Cellular or Growth Inhibition Activity, GI50, HCT116
Protocol: Human colon cancer cell lines (Colo205, HCT116), Ovarian cancer cell line (A2780), Hepatoma cell line (HEP3B), Prostate cancer cell line (PC3) were obtained from ATCC or ECACC. Colo205 cells were cultivated in RPMI 1640 containing 2 mM L-Glutamine, 5% FBS, 1.0 mM Na Pyruvate, 1 U/ml of penicillin and 1 μg of streptomycin. HCT116 cells were cultivated in McCoy's containing RPMI 1640 containing 2 mM L-Glutamine, 5% FBS, 1 U/ml of penicillin and 1 μg of streptomycin. A2780 cells were cultivated in RPMI 1640 containing 2 mM L-Glutamine, 5% FBS, 1 U/ml of penicillin and 1 μg of streptomycin. HEP3B cells were cultivated in EMEM containing 2 mM L-glutamine, 5% FBS, 1% non essential amino acid, 1 mM Na Pyruvate, 1 U/ml of penicillin and 1 μg of streptomycin. PC3 cells were cultivated in F12K, 2 mM L-glutamine, 5% FBS, 1 U/ml of penicillin and 1 μg of streptomycin. PC3, Colo205, and HCT116 cells were seeded in 96-wells plate at 1000, 5000 and 6000 cells per well respectively. A2780 and HEP3B cells were seeded in 96-wells plate at 4000 cells per well respectively. The plates were incubated at 37° C., 5% CO2, for 24 h. Cells were treated with compounds at various concentrations for 96 h. Cell growth was then monitored using CyQUANT® cell proliferation assay (Invitrogen Pte Ltd). Dose response curves were plotted to determine GI50 values for the compounds using XL-fit (ID Business Solution, Emeryville, Calif.). GI50 is defined as the concentration of compound required for 50% inhibition of cell growth.

[1] = In vivo pharmacokinetic (PK) studies; conditions: mouse, plasma, po; mice, hydrochloric acid salt form (2HCl), 50 mg/kg
Protocol: Compound was dissolved in appropriate solution (saline or DMA and Cremaphor in saline) at 1 mg/ml for intravenous (IV) administration, or in 0.5% methyl cellulose, 0.1% Tween 80 in water at 5 mg/ml for oral administration. Mice were randomized according to body weight, grouped three per time point. Mice were administered single IV dose (10 mg/kg) via tail vein, or single oral dose (50 mg/kg) via gavage. At pre-defined time points (predose, 5 or 10, 30 min, 1, 2, 4, 8, and 24 h), one group of mice was sacrificed by overdose CO2 and blood samples were collected by cardiac puncture. The blood samples were centrifuged immediately for 10 min at 3000 rpm to separate plasma, and plasma was kept frozen at −80° C. until analysis by LC/MS/MS. Before sample analysis, the method was developed for LC/MS/MS assay. The method was validated for signal-response of the calibration standards, auto-sampler stability for ˜15 hours intra-day and inter-day calibration curve using eight calibration standards excluding the blank plasma. QC samples at three different concentrations in triplicates were prepared to determine the accuracy and precision. The extracted QC samples were compared to unextracted samples to determine the extraction efficiency of the analyte. LLOQ was determined by using triplicate samples of 1 ng/mL and 2 ng/mL to obtain accuracy and precision at the low end. Samples were analysed using the validated method. Data was analyzed by the non-compartmental model using WinNolin 4.0 software (Pharsight, Mountain View, Calif., USA). The mean values for the plasma compound concentration-time profiles were used in mouse PK study.
The PK parameter AUC0-last providing the information on the overall exposure of the drug in vivo is one of the key PK/PD parameters that helps in predicting the efficacy of an anti-cancer compound. The higher the AUC value, the better will be the in vivo efficacy of the compound at similar in vitro potency.

IC50 (HDAC1 enzyme): 36 nM
GI50 (HCT116): < 500 nM
AUC(0-t) [1]: 1050 ng·h/mL
SMILES: CCCc1nc2cc(/C=C/C(=O)NO)ccc2n1CCNCCC(C)(C)C [Compound 130, 3-{1-[2-(3,3-Dimethyl-butylamino)-ethyl]-2-propyl-1H-benzoimidazol-5-yl}-N-hydroxy-acrylamide]
